Assay results reported in ChEMBL document CHEMBL1201862, “PubChem BioAssay data set” (2004).
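Interpolation was linear, between the two tested concentrations surrounding the appropriate level; five concentrations were tested over 48 hours in 96-well plates. GI50: concentration for 50% inhibition of growth.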 The source made the active and inactive calls. Rule as the data show it: active = GI50 up to about 1.1 µM and inactive = higher.

What was measured:
Experiment in all cases: NCI tumour cell line growth inhibition, 48 h
A549 = system: A549
DU-145 = system: DU-145
EKVX = system: EKVX
HOP-92 = system: HOP-92
IGROV-1 = system: IGROV-1
MDA-MB-231 = system: MDA-MB-231
MDA-MB-435 = system: MDA-MB-435
MDA-N = system: MDA-N
OVCAR-8 = system: OVCAR-8
PC-3 = system: PC-3
RPMI-8226 = system: RPMI-8226
RXF 393 = system: RXF 393
SF-268 = system: SF-268
T47D = system: T47D
UACC-257 = system: UACC-257
HL-60 = system: HL-60
NCI-H226 = system: NCI-H226
OVCAR-4 = system: OVCAR-4

SMILES	GI50 (A549)	GI50 (DU-145)	GI50 (EKVX)	GI50 (HOP-92)	GI50 (IGROV-1)	GI50 (MDA-MB-231)	GI50 (MDA-MB-435)	GI50 (MDA-N)	GI50 (OVCAR-8)	GI50 (PC-3)	GI50 (RPMI-8226)	GI50 (RXF 393)	GI50 (SF-268)	GI50 (T47D)	GI50 (UACC-257)	GI50 (HL-60)	GI50 (NCI-H226)	GI50 (OVCAR-4)
COc1cc(/C=C2\CCC(C)/C(=C\c3cc(OC)c(OC)c(OC)c3)C2=O)cc(OC)c1OC (centres undefined)	2.79 µM (inactive)	7.66 µM (inactive)	3.21 µM (inactive)	> 100 µM (inactive)	2.38 µM (inactive)	8.41 µM (inactive)	3.03 µM (inactive)	2.96 µM (inactive)	2.4 µM (inactive)	2.7 µM (inactive)	0.286 µM (active)	2.55 µM (inactive)	3.37 µM (inactive)	8.95 µM (inactive)	3.78 µM (inactive)	–	–	–
CC(=O)N1c2ccccc2[C@H]2CCc3c([nH]c4ccccc34)[C@H]21	17.2 µM (inactive)	20.1 µM (inactive)	14.5 µM (inactive)	14.4 µM (inactive)	4.33 µM (inactive)	11.4 µM (inactive)	16.7 µM (inactive)	18.5 µM (inactive)	25.3 µM (inactive)	23 µM (inactive)	6.27 µM (inactive)	13.2 µM (inactive)	15.4 µM (inactive)	18.7 µM (inactive)	31.6 µM (inactive)	12.4 µM (inactive)	13.9 µM (inactive)	–
COc1ccc([N+](=O)[O-])c2c(NCCCN(C)C)ccnc12	3.37 µM (inactive)	5.42 µM (inactive)	4.92 µM (inactive)	1.78 µM (inactive)	1.66 µM (inactive)	8.3 µM (inactive)	9.1 µM (inactive)	12.1 µM (inactive)	10.8 µM (inactive)	4.32 µM (inactive)	1.65 µM (inactive)	2.31 µM (inactive)	6.18 µM (inactive)	3.52 µM (inactive)	3.26 µM (inactive)	5.14 µM (inactive)	7.31 µM (inactive)	1.51 µM (inactive)
C#CCCCCC#Cc1ccccc1C(=O)C=[N+]=[N-]	> 100 µM (inactive)	> 100 µM (inactive)	> 100 µM (inactive)	> 100 µM (inactive)	> 100 µM (inactive)	> 100 µM (inactive)	> 100 µM (inactive)	> 100 µM (inactive)	> 100 µM (inactive)	> 100 µM (inactive)	16.5 µM (inactive)	> 100 µM (inactive)	> 100 µM (inactive)	> 100 µM (inactive)	> 100 µM (inactive)	–	> 100 µM (inactive)	> 100 µM (inactive)
C=C(C(=O)OC)[C@H]1CC/C(C)=C/CC/C(C)=C/CC[C@@]2(C)O[C@@H]2C1	14.9 µM (inactive)	21.9 µM (inactive)	18.7 µM (inactive)	16.4 µM (inactive)	16 µM (inactive)	15.9 µM (inactive)	22.9 µM (inactive)	18.2 µM (inactive)	13.8 µM (inactive)	18 µM (inactive)	14.4 µM (inactive)	14.9 µM (inactive)	–	16.3 µM (inactive)	23.8 µM (inactive)	13 µM (inactive)	19.9 µM (inactive)	26.8 µM (inactive)
N=C(N)NCC[C@H](NC(=O)OCCCCCn1ccc(=O)[nH]c1=O)C(=O)O	> 100 µM (inactive)	> 100 µM (inactive)	> 100 µM (inactive)	> 100 µM (inactive)	–	> 100 µM (inactive)	> 100 µM (inactive)	> 100 µM (inactive)	> 100 µM (inactive)	> 100 µM (inactive)	> 100 µM (inactive)	> 100 µM (inactive)	> 100 µM (inactive)	> 100 µM (inactive)	> 100 µM (inactive)	> 100 µM (inactive)	> 100 µM (inactive)	> 100 µM (inactive)
C[C@H](C(=O)N1C(=O)O[C@@H](c2ccccc2)[C@H]1C)[C@H](c1ccccc1)N(Cc1ccccc1)OC(=O)c1ccccc1	32.9 µM (inactive)	66.1 µM (inactive)	–	24.4 µM (inactive)	29.2 µM (inactive)	94 µM (inactive)	49.4 µM (inactive)	48.9 µM (inactive)	37.5 µM (inactive)	53.5 µM (inactive)	21.7 µM (inactive)	73.8 µM (inactive)	33.8 µM (inactive)	15.8 µM (inactive)	20.9 µM (inactive)	29 µM (inactive)	38.4 µM (inactive)	21 µM (inactive)
CCOC(=O)c1ccc(-c2onc(C)c2Br)[nH]1	33 µM (inactive)	55.3 µM (inactive)	37 µM (inactive)	23 µM (inactive)	22.7 µM (inactive)	41.7 µM (inactive)	85.1 µM (inactive)	66.4 µM (inactive)	37.4 µM (inactive)	60 µM (inactive)	86.7 µM (inactive)	21.4 µM (inactive)	> 100 µM (inactive)	30 µM (inactive)	47.2 µM (inactive)	–	–	43.2 µM (inactive)
